pIC50: −log10 of the molar value. “And” between values parts separate entries of the source, which are not always exact repeats. Identical values can stand only once.
Biological target: T1, canine TRPM8 (Canis lupus familiaris, UniProt Q1A7N1)
T1 construct: expressed in transfected cells
Assay: In Vitro Canine TRPM8 Functional Assay (Ca2+ fluorescence, icilin activation)
Type: cell-based
Conditions: for % Inh @ 0.5 μM: 0.5 μM compound; for pIC50: HEK293 cells stably expressing canine TRPM8, icilin activation, Ca2+ fluorescence; for inhibition at 0.5 µM: HEK293, 0.5 μM compound; for % Inh @ 0.2 μM: 0.2 μM compound; for inhibition at 0.2 µM: HEK293, 0.2 μM compound
Method: The functional activity of compounds of the formula (I) was determined by measuring changes in intracellular calcium concentration using a Ca^2+-sensitive fluorescent dye. The changes in fluorescent signal were monitored by a fluorescence plate reader, either a FLIPR™ (Molecular Devices) or FDSS (Hamamatsu). Increases in intracellular Ca^2+ concentration were readily detected upon activation with icilin.
HEK293 cells stably expressing canine TRPM8 were routinely grown as monolayers in Dulbecco's minimum essential medium supplemented with 10% FBS, 2 mM L-glutamine, 100 units/mL penicillin, 100 ug/mL streptomycin and 400 μg/mL G418. Cells were maintained in 5% CO2 at 37° C. At 24 hrs prior to assay, cells were seeded in black wall, clear-base poly-D-lysine coated 384-well plates (BD Biosciences, NJ, USA) at a density of 5,000 cells per well in culture medium and grown overnight in 5% CO2 at 37° C. On assay day, growth media was removed and cells were loaded with Calcium 3 Dye (Molecular Devices) for 35 min at 37° C., under 5% CO2 and then for 25 min at room temperature and atmosphere. Subsequently, cells were tested for agonist-induced increases in intracellular Ca^2+ levels using FLIPR™ or FDSS. Cells were challenged with compounds of the formula (I) (at varying concentrations) and intracellular Ca^2+ was measured for 5 min prior to the addition of icilin to all wells to achieve a final concentration that produces approximately an 80% maximal response.
Maximal fluorescence intensity (FI) achieved upon addition of icilin was exported from the FLIPR or FDSS software and further analyzed using GraphPad Prism 3.02 (Graph Pad Software Inc., CA, U.S.A.). Basal FI was subtracted prior to normalizing data to percent of maximal response. Curves were generated using the average of quadruplicate wells for each data point, were analyzed using nonlinear regression of either sigmoidal dose response or sigmoidal dose response (variable slope).

[1] = canine TRPM8 HEK293, icilin, 0.5 µM
[2] = canine TRPM8 HEK293, icilin, 0.2 µM

T1 sequence (Q1A7N1 1-1104): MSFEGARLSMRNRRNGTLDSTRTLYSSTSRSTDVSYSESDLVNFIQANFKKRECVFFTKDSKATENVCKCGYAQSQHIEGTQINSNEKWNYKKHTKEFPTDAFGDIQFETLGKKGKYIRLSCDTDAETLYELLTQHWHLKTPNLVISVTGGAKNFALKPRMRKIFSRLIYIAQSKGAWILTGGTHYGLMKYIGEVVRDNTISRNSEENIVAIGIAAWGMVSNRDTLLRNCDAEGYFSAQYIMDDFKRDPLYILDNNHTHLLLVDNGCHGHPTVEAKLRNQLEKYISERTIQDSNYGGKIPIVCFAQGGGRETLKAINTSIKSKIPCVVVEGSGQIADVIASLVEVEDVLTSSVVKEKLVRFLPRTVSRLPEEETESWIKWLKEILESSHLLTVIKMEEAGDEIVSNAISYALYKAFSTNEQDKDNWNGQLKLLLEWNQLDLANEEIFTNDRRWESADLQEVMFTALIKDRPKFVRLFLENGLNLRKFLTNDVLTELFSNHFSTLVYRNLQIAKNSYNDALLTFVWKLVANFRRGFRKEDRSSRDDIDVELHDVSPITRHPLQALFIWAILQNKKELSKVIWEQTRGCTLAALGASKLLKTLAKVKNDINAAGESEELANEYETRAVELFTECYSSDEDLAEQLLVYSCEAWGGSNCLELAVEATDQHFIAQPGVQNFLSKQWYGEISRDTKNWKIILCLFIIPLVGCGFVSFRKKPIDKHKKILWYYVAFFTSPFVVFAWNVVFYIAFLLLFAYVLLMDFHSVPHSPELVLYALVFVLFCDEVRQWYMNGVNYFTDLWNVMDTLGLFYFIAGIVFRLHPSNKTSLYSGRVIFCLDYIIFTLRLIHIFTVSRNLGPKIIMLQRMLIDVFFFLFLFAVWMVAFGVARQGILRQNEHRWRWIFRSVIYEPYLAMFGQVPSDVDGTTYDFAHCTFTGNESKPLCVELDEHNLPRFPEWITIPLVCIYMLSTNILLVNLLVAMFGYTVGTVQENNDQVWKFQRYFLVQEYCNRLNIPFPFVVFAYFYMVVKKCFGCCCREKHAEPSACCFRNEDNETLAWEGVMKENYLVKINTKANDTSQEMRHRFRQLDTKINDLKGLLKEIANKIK

In the case of “1-[2-(2-Chloro-phenyl)-pyrrolidin-1-yl]-3-phenylamino-2-(4-trifluoromethyl-phenyl)-propan-1-one [Cpd 83]”, the “% Inh @ 0.5 μM” value (canine TRPM8 HEK293, icilin) was 96% and the pIC50 was 6.61.

In the case of `CC(C)(C)c1ccc(C(Nc2ccccc2)C(=O)N2CCCC2Cc2ccccc2Cl)cc1` (mixture of isomers) [Cpd 6], the “% Inh @ 1 μM” value (1 μM compound, canine TRPM8 HEK293, icilin) was 45.171%.

With `O=C(C(CNc1ccccc1)c1ccc(C(F)(F)F)cc1)N1CCCC1c1ccccc1` (mixture of isomers) [Cpd 94] the “% Inh @ 0.5 μM” value [1] was 98% and the pIC50 was 6.79.

For `O=C(C(CNc1ccccc1)c1ccc(C(F)(F)F)cc1)N1CCCC1c1ccccc1` (mixture of isomers) [Cpd 95], the “% Inh @ 0.5 μM” value [1] was 67%.

In the case of `O=C(C(Nc1ccccc1F)c1ccc(C(F)(F)F)cc1)N1CCCC1c1ccccc1F` (mixture of isomers) [Cpd 131], the “% Inh @ 0.5 μM” value [1] was 103% and the pIC50 was 8.16.

`O=C(C(Nc1ccccc1F)c1ccc(C(F)(F)F)cc1)N1CCCC1c1ccccc1F` (mixture of isomers) [Cpd 153] was tested, and the “% Inh @ 0.5 μM” value [1] was 99.694% and the pIC50 was 7.36.

`O=C(C(Nc1ccccc1F)c1ccc(Cl)cc1)N1CCC[C@H]1c1ccccc1F` (mixture of isomers) [Cpd 156] was tested, and the inhibition at 0.5 µM (canine TRPM8 HEK293, icilin) was 92% and the pIC50 was 8.05.

In the case of `Cc1c(C(Cc2ccccc2F)C(=O)N2CCCC2c2ccccc2F)sc2ccccc12` (mixture of isomers) [Cpd 177], the “% Inh @ 0.2 μM” value (canine TRPM8 HEK293, icilin) was 63%.

`O=C(C(Nc1ccccc1F)c1ccc(Br)cc1)N1CCCC1c1ccccc1F` (mixture of isomers) [Cpd 180] was tested, and the “% Inh @ 0.2 μM” value (canine TRPM8 HEK293, icilin) was 97% and the pIC50 was 8.05.

`CCOC(=O)c1ccc(C(Nc2ccccc2F)C(=O)N2CCC[C@H]2c2ccccc2F)cc1` (mixture of isomers) [Cpd 182] showed an inhibition at 0.2 µM (canine TRPM8 HEK293, icilin) of 102% and a pIC50 of 7.89.

Compound `O=C(C(Nc1ccccc1F)c1ccc(C(F)(F)F)cc1)N1CCC[C@H]1c1cccc(F)c1` (mixture of isomers) [Cpd 186] has an inhibition at 0.2 µM (canine TRPM8 HEK293, icilin) of 98% and a pIC50 of 7.74.

In the case of `COC(=O)c1cccc(C2CCCN2C(=O)C(Nc2ccccc2F)c2ccc(C(F)(F)F)cc2)c1` (mixture of isomers) [Cpd 221], the “% Inh @ 0.2 μM” value (canine TRPM8 HEK293, icilin) was 102% and the pIC50 was 7.66.

For `O=C(O)c1cccc(C2CCCN2C(=O)C(Nc2ccccc2F)c2ccc(C(F)(F)F)cc2)c1` (mixture of isomers) [Cpd 223], the “% Inh @ 0.2 μM” value (canine TRPM8 HEK293, icilin) was 97% and the pIC50 was 7.40.

For `CS(=O)(=O)c1ccc(C(Nc2ccccc2F)C(=O)N2CCCC2c2ccccc2F)cc1` (mixture of isomers) [Cpd 224], the “% Inh @ 0.2 μM” value (canine TRPM8 HEK293, icilin) was 55%.

For `O=C(C(Nc1ccccc1F)c1ccc(Br)cc1)N1[C@H](CO)CC[C@@H]1c1ccccc1` (mixture of isomers) [Cpd 238], the pIC50 was 6.95.

In the case of `O=C(C(Nc1ccccc1F)c1cc2ccccc2s1)N1CCCC1c1ccccc1F` (mixture of isomers) [Cpd 245], the “% Inh @ 0.2 μM” value (canine TRPM8 HEK293, icilin) was 98% and the pIC50 was 8.59.

In the case of `CNC(=O)c1ccc(C(Nc2c(F)cccc2F)C(=O)N2CCCC2c2ccccc2F)cc1` (mixture of isomers) [Cpd 265], the “% Inh @ 0.2 μM” value (canine TRPM8 HEK293, icilin) was 15%.

In the case of `O=C(C(Cc1c(F)cccc1F)c1ccc(C(F)(F)F)cc1)N1CCCC1c1cccnc1` (mixture of isomers) [Cpd 268], the “% Inh @ 0.2 μM” value [2] was 13% and 15%.

With `O=C(C(Nc1c(F)cccc1F)c1ccc(Cl)cc1)N1CCCC1c1cccnc1` (mixture of isomers) [Cpd 270] the “% Inh @ 0.2 μM” value (canine TRPM8 HEK293, icilin) was 58%.

`O=C(C(c1ccc(C(F)(F)F)cc1)N1CCc2ccccc21)N1CCC[C@H]1c1cccnc1` (mixture of isomers) [Cpd 275] showed an inhibition at 0.2 µM (canine TRPM8 HEK293, icilin) of 94% and a pIC50 of 7.68.

For `O=C(C(Nc1ccccc1F)c1ccc2c(c1)CCO2)N1CCC[C@H]1c1ccccc1F` (mixture of isomers) [Cpd 286], the inhibition at 0.2 µM (canine TRPM8 HEK293, icilin) was 96% and the pIC50 was 7.85.

Work on `O=C(C(Nc1ccccc1F)c1ccc(-c2ccccn2)cc1)N1CCC[C@H]1c1ccccc1F` (mixture of isomers) [Cpd 289] yielded an inhibition at 0.2 µM (canine TRPM8 HEK293, icilin) of 84% and a pIC50 of 7.92.

For `O=C(C(c1ccc(C(F)(F)F)cc1)N1CCCc2ccccc21)N1CCCC1c1ccccc1F` (mixture of isomers) [Cpd 292], the “% Inh @ 0.2 μM” value (canine TRPM8 HEK293, icilin) was 45%.

In the case of `O=C(C(Nc1ccccc1F)c1ccc(-c2cccnc2)cc1)N1CCCC1c1ccccc1F` (mixture of isomers) [Cpd 300], the “% Inh @ 0.2 μM” value [2] was 101% and 102% and the pIC50 was 8.22 and 8.10.

For `O=C(C(Nc1ccccc1F)c1ccc(-c2ccccc2)nc1)N1CCC[C@H]1c1ccccc1F` (mixture of isomers) [Cpd 306], the “% Inh @ 0.2 μM” value [2] was 102%, the inhibition at 0.2 µM (canine TRPM8 HEK293, icilin) was 101% and the pIC50 was 8.15.

`COC(=O)c1cc(C(Nc2ccccc2F)C(=O)N2CCCC2c2ccccc2F)ccc1Cl` (mixture of isomers) [Cpd 309] was tested, and the “% Inh @ 0.2 μM” value (canine TRPM8 HEK293, icilin) was 102% and the pIC50 was 7.89.

In the case of `O=C(O)c1cccc(-c2ccc(C(Nc3ccccc3F)C(=O)N3CCCC3c3ccccc3F)cc2)c1` (mixture of isomers) [Cpd 310], the “% Inh @ 0.2 μM” value (canine TRPM8 HEK293, icilin) was 41%.

With `O=C(C(Nc1ccccc1F)c1ccc(N2CCCCC2)nc1)N1CCC[C@H]1c1ccccc1F` (mixture of isomers) [Cpd 334, 2-(2-Fluoro-phenylamino)-1-[(2S)-2-(2-fluoro-phenyl)-pyrrolidin-1-yl]-2-(3,4,5,6-tetrahydro-2H-[1,2′]bipyridinyl-5′-yl)-ethanone] the inhibition at 0.2 µM (canine TRPM8 HEK293, icilin) was 101% and the pIC50 was 8.30.

`COc1ccccc1[C@@H]1CCCN1C(=O)C(Nc1ccccc1F)c1ccc(N2CCCCC2)nc1` (mixture of isomers) [Cpd 335] showed an inhibition at 0.2 µM (canine TRPM8 HEK293, icilin) of 101% and a pIC50 of 7.59.

For `O=C(C(c1ccc(C(F)(F)F)cc1)N1CCCc2ccccc21)N1CCCC1c1cccnc1` (mixture of isomers) [Cpd 336], the “% Inh @ 0.2 μM” value (canine TRPM8 HEK293, icilin) was 43%.

For `O=C(O)c1ccc(-c2ccc(C(Nc3ccccc3F)C(=O)N3CCCC3c3ccccc3F)cc2)cc1` (mixture of isomers) [Cpd 337], the “% Inh @ 0.2 μM” value [2] was 91% and the pIC50 was 7.25.

With `COC(=O)c1cccc([C@@H]2CCCN2C(=O)C(Nc2ccccc2F)c2ccc(C(F)(F)F)cc2)c1` (mixture of isomers) [Cpd 347] the inhibition at 0.2 µM (canine TRPM8 HEK293, icilin) was 99% and the pIC50 was 7.40.

`CN(C)c1cccc([C@H]2CCCN2C(=O)C(Nc2ccccc2F)c2ccc(C(F)(F)F)cc2)c1` (mixture of isomers) [Cpd 348] showed an inhibition at 0.2 µM (canine TRPM8 HEK293, icilin) of 100% and a pIC50 of 7.66.

Compound `O=C(O)c1cccc([C@@H]2CCCN2C(=O)C(Nc2ccccc2F)c2ccc(C(F)(F)F)cc2)c1` (mixture of isomers) [Cpd 349, 3-{(1S)-1-[2-(2-Fluoro-phenylamino)-2-(4-trifluoromethyl-phenyl)-acetyl]-pyrrolidin-2-yl}-benzoic acid] has an inhibition at 0.2 µM (canine TRPM8 HEK293, icilin) of 100% and a pIC50 of 7.48.

Compound `CC(C)(C)c1ccc(C(Nc2ccccc2F)C(=O)N2CCC[C@H]2c2ccccc2F)cn1` (mixture of isomers) [Cpd 355] has an inhibition at 0.2 µM (canine TRPM8 HEK293, icilin) of 100% and a pIC50 of 8.30.

`O=C(C(Nc1ccccc1F)c1ccc(N2CCOCC2)nc1)N1CCC[C@H]1c1ccccc1F` (mixture of isomers) [Cpd 358] was tested, and the inhibition at 0.2 µM (canine TRPM8 HEK293, icilin) was 100% and the pIC50 was 8.10.

In the case of `O=C(C(Nc1ccccc1)c1ccccc1Cl)N1CCCC1c1ccccc1Cl` (mixture of isomers) [Cpd 362], the “% Inh @ 0.5 μM” value (canine TRPM8 HEK293, icilin) was 21.91%.

In the case of `O=C(C(Nc1ccccc1)c1ccc(C(F)(F)F)cc1)N1CCCC1c1ccccc1Cl` (racemic) [Cpd 16], the inhibition at 1 µM (HEK293, 1 μM compound, canine TRPM8 HEK293, icilin) was 103% and the pIC50 was 7.67.

With `Cc1cccc(C)c1NC(C(=O)N1CCc2ccccc21)c1ccc(C(F)(F)F)cc1` (racemic) [Cpd 35] the “% Inh @ 0.5 μM” value (canine TRPM8 HEK293, icilin) was 72.417%.

`O=C(C(Nc1ccccc1Cl)c1ccc(C(F)(F)F)cc1)N1CCc2ccccc21` (racemic) [Cpd 37] was tested, and the “% Inh @ 0.5 μM” value (canine TRPM8 HEK293, icilin) was 49.878%.

`O=C(C(Nc1cccc(Cl)c1)c1ccc(C(F)(F)F)cc1)N1CCc2ccccc21` (racemic) [Cpd 38] was tested, and the “% Inh @ 0.5 μM” value (canine TRPM8 HEK293, icilin) was 63.009%.

`O=C(C(Nc1ccc(Cl)cc1)c1ccc(C(F)(F)F)cc1)N1CCc2ccccc21` (racemic) [Cpd 39] was tested, and the “% Inh @ 0.5 μM” value (canine TRPM8 HEK293, icilin) was 73.007%.

In the case of `O=C(C(CNc1ccccc1)c1ccc(C(F)(F)F)cc1)N1CCc2ccccc21` (racemic) [Cpd 40], the “% Inh @ 0.5 μM” value (canine TRPM8 HEK293, icilin) was 90.495% and the pIC50 was 6.63.

With `O=C(C(NC1CCCCC1)c1ccc(C(F)(F)F)cc1)N1CCc2ccccc21` (racemic) [Cpd 41] the “% Inh @ 0.5 μM” value (canine TRPM8 HEK293, icilin) was 70.995%.

In the case of `O=C(C(Nc1ccccc1F)c1ccc(C(F)(F)F)cc1)N1CCCC1c1ccccc1Cl` (racemic) [Cpd 68], the inhibition at 0.2 µM (canine TRPM8 HEK293, icilin) was 89%, the inhibition at 0.5 µM (canine TRPM8 HEK293, icilin) was 103% and the pIC50 was 8.15 and 7.92 and 7.89.

`O=C(C(Nc1ccccc1F)c1ccc(C(F)(F)F)cc1)N1CCCC1c1ccccc1` (racemic) [Cpd 69] was tested, and the inhibition at 0.5 µM (canine TRPM8 HEK293, icilin) was 102% and the pIC50 was 8.30.

For `COc1ccc(C(Nc2ccccc2)C(=O)N2Cc3ccccc3C2)cc1` (racemic) [Cpd 73], the “% Inh @ 0.5 μM” value (canine TRPM8 HEK293, icilin) was 33%.
